≈ marks a conversion by molar mass, not a printed value.

The test system of data set [1] is crude intestinal α-glucosidase. Briefly: In-vitro mammalian (rat intestinal) α-glucosidase inhibition assay. The following applies: for Mammalian α Glucosidase Inhibition (Mean ± S.E): highest concentration 5 mg/ml. The data set is classed as biochemical. The text has this:
(§1) Chemicals: α-Glucosidase [(EC 3.2.1.20) Type I: from bakers yeast], rat intestinal acetone powder (as a source of crude intestinal α-glucosidase), α-amylase [EC 3.2.1.1) Type VI B: from porcine pancreas], p-nitrophenyl α-D-glucopyranoside, 3,5-dinitro salicylic acid, soluble potato starch and 1-deoxyrojirimycine, were purchased from Sigma Chemical Co., St Louis, Mo., USA. Other chemicals of analytical grade were procured from indigenous manufacturers.
(§2) In-vitro a-Glucosidase Inhibition Assay: Yeast and intestinal a-glucosidase inhibitory activities were determined as per reported methods (Babu et al., 2004; Mc Dougall et al., 2005). Rat intestinal acetone powder in normal saline (100% w/v) was sonicated properly and the supernatant was used as a source of crude intestinal a-glucosidase after centrifugation. In brief, 20 μl, of test samples (100 mg/ml DMSO solution) were reconstituted in 100 μl of 100 mM-Phosphate buffer (pH 6.8) in a 96-well microplate and incubated with 50 μl yeast a-glucosidase (0.76 μ/ml in same buffer) or crude intestinal a-glucosidase for 5 min before 50-μl substrate (5 mM, […] prepared in same buffer) was added. Release of p-nitrophenyol was measured at 405 nm spectrophotometrically (Spectra Mas Plus 384, Molecular Device corporation, Sunnyvale, Calif., USA) 5 min after incubation with substrate, individual blank for test samples were prepared to correct background absorbance where the substrate was replaced with 50 μl of buffer. The control sample contained 20 μl DMSO in place of test samples. The percentage of enzyme inhibition was calculated as (A−B/A)×100 where A is represents the absorbance of the control without test samples, and B represents the absorbance in the presence of test samples. […] The IC50 values were calculated by applying logarithmic regression analysis from the mean inhibitory values.

For data set [2], the system named is mice. Briefly: Adenosine mediated bronchoconstriction and lung inflammation in an allergic mouse model. The data set is classed as in vivo. Further details: Total count: unit not given here. The following applies: BAL fluid cells; 100 mg/kg oral. The method, then: Thienopyridines were proven as potent cytotoxic and anti-inflammatory agents in the previous experimental results. In cytotoxic MTT assay, activity of these molecules may be due to the involvement of adenosine receptors. Further, to find the bronchodilatory activity of these moieties and to find the involvement of adenosine receptors in their action, non-invasive and invasive adenosine mediated bronchoconstriction and lung inflammation in an allergic mouse model was performed.
Male mice, 6-8 weeks of age, free of specific pathogens were obtained from National Institute of Nutrition. The animals were maintained on a ragweed-free diet. All experimental protocols used in this study were under a protocol approved by animal ethical committee. Sensitization was performed according to the modified procedure described by Fan et al, 2002. Mice were sensitized on days 1 and 6 with i.p. injections of ragweed allergen (200 μg/200 μl of water for injection). Non-sensitized control animals received only water for injection with the same volumes. Ten days after sensitization, the mice were placed in plexiglas chamber and challenged with 0.5% ragweed or with 0.9% saline as a control for twenty minutes both in the morning and evening for three days. Then mice were divided into different groups consisting of six animals each. The groups including a control without sensitization; a sensitized group and a standard group along with groups of the test molecules were separated. Twenty-four hours after last challenge with ragweed, the mice were given an oral dose of test molecules and theophylline (100 mg/kg body weight) as acacia suspension. Two hours after administration of the oral dose, the mice were challenged with adenosine solution (24 mg/ml). The variation in respiration was recorded after anaesthetizing them with pentobarbitone sodium (0.1 ml 200 mg/ml ip) using kymograph. Then, mice were sacrificed and trachea was cannulated to collect the bronchoalveolar lavage fluid. This was performed by pumping 1 ml phosphate buffered saline into lungs through tracheal cannula and collecting the sample. Analysis of BAL fluid was performed to get the cellular differentials. The BAL fluid was centrifugated at 1500 rpm for six minutes at room temparature. After removing the supernatant, BAL cells were resuspended in 1 ml of phosphate buffered saline. Total cells were then counted manually in a hemocytometer chamber. A differential count of at least 300 cells was made according to the standard morphologic criteria and results were mentioned in table.

In data set [3] the target is T1, yeast α-glucosidase (Saccharomyces cerevisiae, UniProt P53341).
T1 construct: α-Glucosidase [(EC 3.2.1.20) Type I: from bakers yeast]
Briefly: In-vitro yeast α-glucosidase inhibition assay. The data set is classed as biochemical, bakers yeast.
Source text: as §1, §2

The test system of data set [4] is IL-1β. Description: IL-1β in rat paw tissue and serum, FCA model (ELISA). The data set is classed as in vivo. The arrangement: % Inhibition (IL-1 Beta) / Percentage of Inhibition (IL-1 Beta): concentration or dose not given beside the values. How it is done: Group I—Normal Control; Group II—Arthritic control; Group III—Arthritic rats administered with Synthetic compound BN-4; Group IV—arthritic rats administered with compound BN-14; Group V—arthritic rats administered with BN-16; Group VI—arthritic rats administered with standard drug indomethacin. Administration of test compounds and indomethacin started on the same day of adjuvant injection at the dose of 100 and 2.5 mg/kg respectively. The test and indomethacin doses continued up to 21 days in FCA induced model and 24 days in collagen induced model. During the study period the paw volumes were measured on 5th, 12th, 18th and 21 st days and the weight of the animals was also recorded at different time intervals. At each time point the percentage of inhibition of paw volume was calculated with reference to mean paw volume of control group In FCA model, animals were sacrificed on 21st day by cervical dislocation. Before sacrificing the animals, blood was collected and used for estimation of total leukocyte count, TNF-α and IL-1β.
In FCA induced study paw tissues were collected on termination day and estimated TNF-α and IL-1β levels for all the groups by ELISA method.
On termination day blood samples were collected and serum was used for the estimation of Both TNF-α and IL-1β levels in FCA and Collagen induced studies. Both the parameters were determined using ELISA kits. TNF-α could not be determined as their expression is very less in serum samples of the rats in the two models studied, where as IL-1β expression in serum was good. Daily treatment of synthetic compounds by oral administration was effective in reducing the serum IL-1β levels (P<0.01) when compared with arthritic control group.

The mark [5] stands for this setting: rat serum, termination day, FCA induced arthritis.

T1 sequence (P53341 whole entry): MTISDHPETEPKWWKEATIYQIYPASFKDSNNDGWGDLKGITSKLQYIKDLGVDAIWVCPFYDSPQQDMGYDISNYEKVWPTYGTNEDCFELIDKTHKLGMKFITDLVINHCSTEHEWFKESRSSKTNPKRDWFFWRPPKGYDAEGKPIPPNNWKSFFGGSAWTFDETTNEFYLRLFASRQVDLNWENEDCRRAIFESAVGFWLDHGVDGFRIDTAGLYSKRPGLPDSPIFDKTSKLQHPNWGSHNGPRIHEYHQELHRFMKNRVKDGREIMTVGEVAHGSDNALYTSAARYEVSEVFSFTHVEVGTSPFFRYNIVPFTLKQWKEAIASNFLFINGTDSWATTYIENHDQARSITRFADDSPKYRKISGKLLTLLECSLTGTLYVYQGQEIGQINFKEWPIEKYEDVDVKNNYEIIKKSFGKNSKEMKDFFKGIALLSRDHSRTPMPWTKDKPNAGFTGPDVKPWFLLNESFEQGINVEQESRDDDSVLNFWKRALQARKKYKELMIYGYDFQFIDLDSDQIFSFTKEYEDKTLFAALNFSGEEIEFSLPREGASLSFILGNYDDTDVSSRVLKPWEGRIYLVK

As to `Cc1sc2nc3c(c(N)c2c1C)CCC3` [BN-1, 2,3-dimethyl-6,7-dihydro-5H-cyclopenta[b]thieno[3,2-e]pyridin-4-amine], the melting point is 231 °C. For the same compound, the “Mammalian α Glucosidase Inhibition (Mean ± S.E)” value in data set [1] amounted to 0.0 ± 0.0%. Besides, in data set [2], the “Differential count (%) Eosinophils” value was 12%, the “Differential count (%) Lymphocytes” value was found to be 65%, the “Differential count (%) Monocytes” value worked out at 20% and the Total count turned out to be 12.
Consider `Cc1sc2nc3c(c(N)c2c1C)CCCC3` [BN-2, 2,3-dimethyl-5,6,7,8-tetrahydrothieno[2,3-b]quinolin-4-amine], for which the melting point turned out to be 210 °C. For the same compound, in data set [1], the “Mammalian α-glucosidase inhibitory activity (in words)” value is reported as “moderate inhibitory activity” and the “Mammalian α Glucosidase Inhibition (Mean ± S.E)” value is given as 40.0 ± 2.5%. Besides, the “Yeast α-glucosidase enzyme inhibitory activity (in words)” value in data set [3] is listed as “strong significant inhibitory activity”. The inhibition at 39.063 µg/mL in data set [3] (yeast α-glucosidase, 0.039063 mg/ml, read-out: % Inhibition (Mean ± S.E)) was 15.3 ± 2.69%. In addition, the inhibition at 78.125 µg/mL in data set [3] (yeast α-glucosidase, 0.078125 mg/ml, read-out: % Inhibition (Mean ± S.E)) came out at 20.1 ± 1.37%. Besides, the inhibition at 156.25 µg/mL in data set [3] (yeast α-glucosidase, 0.15625 mg/ml, read-out: % Inhibition (Mean ± S.E)) came to 25.9 ± 0.44%. Moreover, the inhibition at 312.5 µg/mL in data set [3] (yeast α-glucosidase, 0.3125 mg/ml, read-out: % Inhibition (Mean ± S.E)) came out at 33.4 ± 0.76%. Further, the inhibition at 625 µg/mL in data set [3] (yeast α-glucosidase, 0.625 mg/ml, read-out: % Inhibition (Mean ± S.E)) was 39.2 ± 0.87%. Also, in data set [3] (yeast α-glucosidase, 1.25 mg/ml, read-out: % Inhibition (Mean ± S.E)), the inhibition at 1250 µg/mL turned out to be 43.9 ± 1.92%. Also, the inhibition at 2500 µg/mL in data set [3] (yeast α-glucosidase, 2.5 mg/ml, read-out: % Inhibition (Mean ± S.E)) amounted to 53 ± 1.13%. Also, the inhibition at 5000 µg/mL in data set [3] (yeast α-glucosidase, 5 mg/ml, read-out: % Inhibition (Mean ± S.E)) is 56.54 ± 0.28%.
The compound `Nc1c2c(nc3sc4c(c13)CCCC4)CCC2` [BN-5, 2,3,6,7,8,9-Hexahydro-1H-benzo[4,5]thieno[2,3-b]cyclopenta[e]pyridin-10-amine] displayed a melting point of 221 °C. Moreover, the “Mammalian α Glucosidase Inhibition (Mean ± S.E)” value in data set [1] is listed as 0.0 ± 0.0%. Moreover, the “Yeast α-glucosidase enzyme inhibitory activity (in words)” value in data set [3] is given as “moderate inhibitory activity”.
As to `Nc1c2c(nc3sc4c(c13)CCCC4)CCCC2` [BN-6, 1,2,3,4,7,8,9,10-Octahydrobenzo[4,5]thieno[2,3-b]quinolin-11-amine], the “Mammalian α Glucosidase Inhibition (Mean ± S.E)” value in data set [1] came to 19.92 ± 1.27%. Further, the “Yeast α-glucosidase enzyme inhibitory activity (in words)” value in data set [3] is given as “moderate inhibitory activity”. Also, in data set [2], the “Differential count (%) Eosinophils” value is on record as 15%, the “Differential count (%) Lymphocytes” value is on record as 75%, the “Differential count (%) Monocytes” value worked out at 10% and the Total count came out at 10.5.
As to `CC1CCc2c(nc3sc4c(c3c2N)CCCC4)C1` (centres unmarked) [BN-7, 8-Methyl-1,2,3,4,7,8,9,10-octahydrobenzo[4,5]thieno[2,3-b]quinolin-11-amine], in data set [1], the “Mammalian α-glucosidase inhibitory activity (in words)” value is reported as “moderate inhibitory activity” and the “Mammalian α Glucosidase Inhibition (Mean ± S.E)” value is 50.19 ± 0.93%. Further, in data set [2], the “Differential count (%) Eosinophils” value was found to be 20%, the “Differential count (%) Lymphocytes” value is 70%, the “Differential count (%) Monocytes” value came to 10% and the Total count is recorded as 7.
On to `Nc1c2c(nc3sc4c(c13)CCCC4)CCCCC2` [BN-8, 2,3,4,7,8,9,10,11-Octahydro-1H-benzo[4,5]thieno[2,3-b]cyclohepta [e]pyridin-12-amine], for which the “Mammalian α Glucosidase Inhibition (Mean ± S.E)” value in data set [1] came to 10.76 ± 0.92%. Also, in data set [2], the “Differential count (%) Eosinophils” value worked out at 20%, the “Differential count (%) Lymphocytes” value turned out to be 70%, the “Differential count (%) Monocytes” value is listed as 10% and the Total count was found to be 14.
In turn, `Nc1c2c(nc3sc4c(c13)CCC4)CCC2` [BN-13, 1,2,3,6,7,8-hexahydrocyclopenta [b]cyclopenta[4,5] thieno[3,2-e]pyridin-9-amine] gave a melting point of 245 °C. Moreover, in data set [1], the “Mammalian α-glucosidase inhibitory activity (in words)” value was “significant inhibitory activity” and the “Mammalian α Glucosidase Inhibition (Mean ± S.E)” value is 76.13%. The “Mammalian α-glucosidase inhibition (Mean ± S.E)” value in data set [1] (0.039063 mg/ml) turned out to be 10.06 ± 1.36%. In addition, the “Mammalian α-glucosidase inhibition (Mean ± S.E)” value in data set [1] (0.078125 mg/ml) is listed as 27.07 ± 1.93%. Also, in data set [1] (0.15625 mg/ml), the “Mammalian α-glucosidase inhibition (Mean ± S.E)” value stood at 34.89 ± 2.28%. In addition, the “Mammalian α-glucosidase inhibition (Mean ± S.E)” value in data set [1] (0.3125 mg/ml) is recorded as 44.87 ± 1.62%. Besides, the “Mammalian α-glucosidase inhibition (Mean ± S.E)” value in data set [1] (0.625 mg/ml) is reported as 52.97 ± 1.47%. Also, the “Mammalian α-glucosidase inhibition (Mean ± S.E)” value in data set [1] (1.25 mg/ml) stood at 67.24 ± 1.08%. In addition, the “Mammalian α-glucosidase inhibition (Mean ± S.E)” value in data set [1] (2.5 mg/ml) is 71.39 ± 1.82%. The “Mammalian α-glucosidase inhibition (Mean ± S.E)” value in data set [1] (5 mg/ml) turned out to be 76.13 ± 0.03%. This compound had a half-maximal inhibitory concentration (IC50) in data set [1] (mammalian α-glucosidase, dose response study) of 509 µg/mL (≈ 2210 µM). The “Yeast α-glucosidase enzyme inhibitory activity (in words)” value in data set [3] was “moderate inhibitory activity”. In data set [2], the “Differential count (%) Eosinophils” value amounted to 20%, the “Differential count (%) Lymphocytes” value is 74%, the “Differential count (%) Monocytes” value is on record as 16.5% and the Total count is 8.
For the compound `COc1ccc2c(c1)c(CC(=O)O)c(C)n2C(=O)c1ccc(Cl)cc1` [Indomethacin, reference compound], the “IL-1 Beta concentration” value in data set [4] (paw tissue, termination day (21st day), BN compounds 100 mg/kg, indomethacin 2.5 mg/kg) was 81.02 ± 17.98 ng/gm of tissue. For the same compound, the “% Inhibition (IL-1 Beta)” value in data set [4] (paw tissue, termination day, FCA model) is given as 40.42 ± 8.73%. Further, in data set [4] (setting [5]), the “IL-1 Beta concentration” value is recorded as 46.0 ± 7.91 Pg/ml of tissue and the “Percentage of Inhibition (IL-1 Beta)” value is listed as 20.04 ± 5.33%.

Values taken from US20110269790A1, “NOVEL THIENOPYRIDINES AS PHARMACOLOGICALLY ACTIVE AGENTS” (priority 2009, published 2011).
